From patent US6649365B1, “Indolamine derivatives for detecting peptidase activity in culture media” (Bio Merieux, priority 1998, dated 2003)
Blank lines part the entries; values can stand above or below the compound they belong to.

What was measured:
C. albicans [1] = test: Coloration or fluorescence in phosphate buffer, microtitration plates (Example 2); format: cell-based, Candida albicans; conditions: 0.1 M phosphate buffer pH 7.3, substrate 400 mg/L, 37° C., 24 to 48 hours
Experimental: (§1) L-Pro-BIA or L-Pro-AMC is added, at the concentration of 400 mg/L, to a 0.1 M phosphate buffer, pH 7.3, at 25° C. The medium obtained is distributed into the wells of microtitration plates which are inoculated with suspensions of P. aeruginosa or of C. albicans. The plates are incubated for 24 hours at 37° C. The wells are examined visually in ambient light and under a UV lamp, after incubation for 24 to 48 hours.

P. aeruginosa [2] = test: as above; format: cell-based, Pseudomonas aeruginosa; conditions: 0.1 M phosphate buffer pH 7.3, substrate 400 mg/L, 37° C., 24 to 48 hours
Experimental: as §1

[3] = test system: genera Escherichia, Klebsiella, Citrobacter, Pseudomonas, Enterococcus, Staphylococcus and Streptococcus; test: Preliminary tests in the medium described in Example 1; format: cell-based; conditions: for leucine-aminopeptidase or proline-aminopeptidase activity demonstrated: substrate added to the medium of Example 1
Experimental: In the course of the studies which lead to the present invention, an investigation was, carried out as to whether it was possible to use this enzymatic substrate for detecting microorganisms cultured, in particular, on gelled media. During preliminary tests, L-Leu-BIA or L-Pro-BIA was added to a medium currently used to search for osidases, which is described in Example 1 below.
Similarly, in this medium, with osidase substrates (5-bromo-4-chloro-3-indolyl-β-D-galactoside and 6-chloro-3-indolyl-β-D-glucuronide), the β-galactos-idase and β-glucuronidase activities of the microorganisms can be detected.

Pseudomonas aeruginosa = test: Colony colour or fluorescence on gelled medium of Example 1; format: cell-based; conditions: medium of Example 1, substrate 200 mg/l, 37° C., 24 or 48 hours, ambient light and UV 365 nm
Experimental: (§2) L-Pro-BIA, or 7-L-prolylamino-4-methylcoumarin (L-Pro-AMC) is added to this medium at a concentration of 200 mg/l. The various media obtained, which are distributed in Petri dishes, are inoculated with microorganisms. The dishes were incubated at 37° C. for 48 hours. The colonies formed were examined visually in ambient light and under a UV lamp (wavelength=365 nm) after incubation for 24 and 48 hours. The colour or the presence of fluorescence was noted. The microorganisms studied were: Pseudomonas aeruginosa and Candida albicans.

Candida albicans = test: as above; format: cell-based; conditions: medium of Example 1, substrate 200 mg/l, 37° C., 24 or 48 hours, ambient light and UV 365 nm
Experimental: as §2

C. albicans [4] = test: Colony colour on gelled medium of Example 3; format: cell-based, Candida albicans; parameters: key: —: Absence of coloration; Brown = Colony colour; conditions: 37° C.
Experimental: (§3) L-Pro-BIA, pyroglutamyl-BIA (Pyr-BIA) or Ala-Phe-Pro-BIA is added to this medium. These various media, which are distributed into Petri dishes, are inoculated with various microorganisms: E. coli, K. pneumoniae, C. freundii, p. aeruginosa, S. agalactiae, E. faecium, S. pyogenes, S. epidermidis, C. albicans and C. tropicalis. The dishes are incubated at 37° C. for 48 hours, and the colonies formed are examined visually after incubation for 24 and 48 hours. The colour was noted.

P. aeruginosa [5] = test: Colony colour on gelled medium of Example 3; format: cell-based, Pseudomonas aeruginosa; parameters: key: —: Absence of coloration; Brown = Colony colour; conditions: 37° C.
Experimental: as §3

C. tropicalis = test: Colony colour on gelled medium of Example 3; format: cell-based; parameters: key: —: Absence of coloration; Brown = Colony colour; conditions: 37° C.
Experimental: as §3

E. coli = test: Colony colour on gelled medium of Example 3; format: cell-based, Escherichia coli; parameters: key: —: Absence of coloration; Brown = Colony colour; conditions: 37° C.
Experimental: as §3

C. freundii = test: Colony colour on gelled medium of Example 3; format: cell-based, Citrobacter freundii; parameters: key: —: Absence of coloration; Brown = Colony colour; conditions: 37° C.
Experimental: as §3

K. pneumoniae = test: Colony colour on gelled medium of Example 3; format: cell-based, Klebsiella Pneumoniae; parameters: key: —: Absence of coloration; Brown = Colony colour; conditions: 37° C.
Experimental: as §3

[6] = test system: Staphylococcus epidermidis; test: Colony colour or fluorescence on gelled medium of Example 1; format: cell-based; conditions: medium of Example 1, substrate 200 mg/L, 24 or 48 hours
Streptococcus pyogenes = test: as above; format: cell-based; conditions: medium of Example 1, substrate 200 mg/L, 24 or 48 hours
Citrobacter freundii = test: as above; format: cell-based; conditions: medium of Example 1, substrate 200 mg/L, 24 or 48 hours
Streptococcus agalactiae = test: as above; format: cell-based; conditions: medium of Example 1, substrate 200 mg/L, 24 or 48 hours
Enterococcus faecium = test: as above; format: cell-based; conditions: medium of Example 1, substrate 200 mg/L, 24 or 48 hours
Klebsiella Pneumoniae = test: as above; format: cell-based; conditions: medium of Example 1, substrate 200 mg/L, 24 or 48 hours
Escherichia coli = test: as above; format: cell-based; conditions: medium of Example 1, substrate 200 mg/L, 24 or 48 hours

peptidase activity revealed by colour or fluorescence of the colonies (Pseudomonas aeruginosa): emission of a fluorescence
Structure (SMILES): Cc1cc(=O)oc2cc(NC(=O)[C@@H]3CCCN3)ccc12 [L-Pro-AMC, 7-L-prolylamino-4-methylcoumarin]
peptidase activity revealed by coloration or fluorescence of the wells (C. albicans [1]): possible to reveal an L-Pro-aminopeptidase activity | peptidase activity revealed by coloration or fluorescence of the wells (P. aeruginosa [2]): possible to reveal an L-Pro-aminopeptidase activity | leucine-aminopeptidase or proline-aminopeptidase activity demonstrated [3]: a fluorescence | peptidase activity revealed by colour or fluorescence of the colonies (Candida albicans): emission of a fluorescence

peptidase activity revealed by coloration or fluorescence of the wells (C. albicans [1]): No coloration | peptidase activity revealed by coloration or fluorescence of the wells (P. aeruginosa [2]): No coloration | peptidase activity revealed by colour or fluorescence of the colonies (Pseudomonas aeruginosa): no coloration
Structure (SMILES): O=C(Nc1c[nH]c2ccc(Br)cc12)[C@@H]1CCCN1 [L-Pro-BIA]
Colony colour (C. albicans [4]; 24 H): Brown | Colony colour (C. albicans [4]; 48 H): Brown | Colony colour (P. aeruginosa [5]; 24 H): Brown | Colony colour (P. aeruginosa [5]; 48 H): Brown | Colony colour (C. tropicalis; 24 H): — | Colony colour (C. tropicalis; 48 H): — | Colony colour (E. coli; 24 H): —^1 | Colony colour (E. coli; 48 H): — | Colony colour (C. freundii; 24 H): — | Colony colour (C. freundii; 48 H): — | revelation of a peptidase activity ([3]; medium of Example 1 with addition of the reagents proposed by Lojda and Havrankova (tetrazolium salt and phenazine methosulphate)): without allowing the revelation of a peptidase activity | leucine-aminopeptidase or proline-aminopeptidase activity demonstrated [3]: not possible to demonstrate | peptidase activity revealed by colour or fluorescence of the colonies (Candida albicans): no coloration | Colony colour (K. pneumoniae; 24 H): — | Colony colour (K. pneumoniae; 48 H): —

peptidase activity revealed by colour or fluorescence of the colonies (Streptococcus pyogenes): no coloration | peptidase activity revealed by colour or fluorescence of the colonies (Citrobacter freundii): no coloration | peptidase activity revealed by colour or fluorescence of the colonies (Streptococcus agalactiae): no coloration | peptidase activity revealed by colour or fluorescence of the colonies (Enterococcus faecium): no coloration | peptidase activity revealed by colour or fluorescence of the colonies (Klebsiella Pneumoniae): no coloration | peptidase activity revealed by colour or fluorescence of the colonies (Pseudomonas aeruginosa): no coloration
Structure (SMILES): C[C@H](N)C(=O)Nc1c[nH]c2ccc(Br)cc12 [L-Ala-BIA]
peptidase activity revealed by colour or fluorescence of the colonies [6]: no coloration | peptidase activity revealed by colour or fluorescence of the colonies (Escherichia coli): no coloration
